Results as given in paper PMC3554773, “Screening of a Specific Peptide Binding to VPAC1 Receptor from a Phage Display Peptide Library” (PLoS ONE, 2013).
No end group written: not given here.

What was measured:
[1] = biological target: T1, VPAC1 receptor (CHO-K1/VPAC1 cells) (Homo sapiens, UniProt P32241); test: in vitro subtractive panning of 12-mer phage display peptide library on CHO-K1/VPAC1 cells, DNA sequencing of clones; format: binding; conditions: 60 phage clones randomly selected after fourth round of panning; three lacked exogenous sequence
T1 construct: expressed in transfected cells
T1 sequence (P32241 31-457): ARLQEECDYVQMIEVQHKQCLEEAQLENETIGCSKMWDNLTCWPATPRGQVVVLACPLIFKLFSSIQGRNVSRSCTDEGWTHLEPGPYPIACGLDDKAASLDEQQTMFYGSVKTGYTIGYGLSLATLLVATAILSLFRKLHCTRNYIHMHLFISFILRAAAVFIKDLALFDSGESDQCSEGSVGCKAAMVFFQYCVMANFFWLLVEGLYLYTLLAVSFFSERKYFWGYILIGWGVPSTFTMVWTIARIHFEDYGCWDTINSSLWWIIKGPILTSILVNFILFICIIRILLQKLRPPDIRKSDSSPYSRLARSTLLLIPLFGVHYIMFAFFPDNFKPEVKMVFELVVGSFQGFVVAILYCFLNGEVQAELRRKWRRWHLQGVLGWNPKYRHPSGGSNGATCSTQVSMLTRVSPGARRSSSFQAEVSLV

[2] = biological target: T1, VPAC1 receptor (CHO-K1/VPAC1 cells); test: cellular ELISA, binding of phage clones to CHO-K1/VPAC1 versus wild-type CHO-K1 cells; conditions: 1×10^10 pfu/well, 37°C, 2 h, HRP-anti-M13, glutaral-fixed cells, triplicate, p<0.01
[3] = biological target: T1, VPAC1 receptor (CHO-K1/VPAC1 cells); test: competitive inhibition ELISA: binding of positive phage clone VP2 to CHO-K1/VPAC1 cells, inhibited by synthetic peptide
Procedure: Competitive binding inhibition between the positive phage clone and its encoded peptide was evaluated in this study using the competitive inhibition ELISA method. The procedure was similar to that of the cellular ELISA mentioned above in “Cell enzyme-linked immunosorbent assay”. Briefly, CHO-K1/VPAC1 cells were incubated with 100 µl of synthetic peptide encoded by the positive phage clone at various concentrations (0, 0.0001, 0.001, 0.01, 0.1, 1, 10 and 100 µg/ml) in a 96-well plate after it was blocked with 2% BSA. Subsequently, 1×10^10 pfu homologous positive phage clones was added to the cells and incubated at 37°C for 2 h. The unbound phages were washed away, and an HRP-conjugated anti-M13 monoclonal antibody was used to detect the bound phages as described above. The rate of inhibition was calculated using the following formula: rate of inhibition = (A value of inhibition control – A value of inhibition)/A value of inhibition control×100%. An unrelated peptide corresponding to an unrelated phage was used as a negative control.

Sequence: AYTTVPYMATLP [VP9]
- Frequency (number of the peptide sequence appeared in the whole selected phage clones) [1]: 1

Sequence: DTFHSPLVALVS [VP5]
- binding affinity to CHO-K1/VPAC1 cells compared with CHO-K1 cells (OD450 nm) [2]: higher affinity to CHO-K1/VPAC1 cells than CHO-K1 cells
- Frequency (number of the peptide sequence appeared in the whole selected phage clones) [1]: 5

Sequence: DTGHSPEPGKVP [VP13]
- Frequency (number of the peptide sequence appeared in the whole selected phage clones) [1]: 1

Sequence: ETVRQAEELFYV [VP7]
- Frequency (number of the peptide sequence appeared in the whole selected phage clones) [1]: 1

Sequence: GFRFGALHEYNS [VP2]
- IC50 of VP2 peptide compared with IC50 of VIP ([3]; inhibition of phage VP2 binding to CHO-K1/VPAC1 cells, VIP value from Figure 5A): significantly lower than the IC50 of VIP
- IC50 ([3]; peptide 0-100 µg/ml, 1×10^10 pfu phage VP2, 37°C, 2 h): ~13.2 nM

Sequence: GGSIAASELEYY [VP10]
- binding affinity to CHO-K1/VPAC1 cells compared with CHO-K1 cells (OD450 nm) [2]: higher affinity to CHO-K1/VPAC1 cells than CHO-K1 cells
- Frequency (number of the peptide sequence appeared in the whole selected phage clones) [1]: 2

Sequence: GSFHSPLLAYVS [VP12]
- Frequency (number of the peptide sequence appeared in the whole selected phage clones) [1]: 1

Sequence: GTFHSPLLDHKS [VP14]
- Frequency (number of the peptide sequence appeared in the whole selected phage clones) [1]: 1

Sequence: GWLRSPSLLFSN [VP16]
- binding affinity to CHO-K1/VPAC1 cells compared with CHO-K1 cells (OD450 nm) [2]: higher affinity to CHO-K1/VPAC1 cells than CHO-K1 cells
- Frequency (number of the peptide sequence appeared in the whole selected phage clones) [1]: 2

Sequence: GYTFQPLNEWAI [VP18]
- Frequency (number of the peptide sequence appeared in the whole selected phage clones) [1]: 1

Sequence: HSTLKLGALTNY [VP11]
- Frequency (number of the peptide sequence appeared in the whole selected phage clones) [1]: 1

Sequence: NSIALINDTHKR [VP3]
- Frequency (number of the peptide sequence appeared in the whole selected phage clones) [1]: 2

Sequence: SFRFFPLDMWPH [VP8]
- binding affinity to CHO-K1/VPAC1 cells compared with CHO-K1 cells (OD450 nm) [2]: higher affinity to CHO-K1/VPAC1 cells than CHO-K1 cells
- Frequency (number of the peptide sequence appeared in the whole selected phage clones) [1]: 5

Sequence: TVKYSTLVEWPY [VP1]
- binding affinity to CHO-K1/VPAC1 cells compared with CHO-K1 cells (OD450 nm) [2]: higher affinity to CHO-K1/VPAC1 cells than CHO-K1 cells
- Frequency (number of the peptide sequence appeared in the whole selected phage clones) [1]: 8

Sequence: TVTFAPLRMWHP [VP15]
- Frequency (number of the peptide sequence appeared in the whole selected phage clones) [1]: 1

Sequence: TWKFEPLGTFID [VP4]
- Frequency (number of the peptide sequence appeared in the whole selected phage clones) [1]: 3

Sequence: TYTFRPLYEPPL [VP17]
- Frequency (number of the peptide sequence appeared in the whole selected phage clones) [1]: 1

Sequence: YTSHFPLETWPQ [VP6]
- binding affinity to CHO-K1/VPAC1 cells compared with CHO-K1 cells (OD450 nm) [2]: higher affinity to CHO-K1/VPAC1 cells than CHO-K1 cells
- Frequency (number of the peptide sequence appeared in the whole selected phage clones) [1]: 5
